From ChEMBL document CHEMBL5303573, “Mapping human microbiome drug metabolism by gut bacteria and their genes” (Nature, 2019)

Legend:
[1] = The drug is tested on Enterobacter cancerogenus strain: ATCC35316 for biotransformation. The drug concentrations were measured before and after a 12-h incubation by liquid-chromatography-coupled mass spectrometry (LC–MS); settings: 2 µM
[2] = enterocloster bolteae, 12 h, 2 µM
Description: The drug is tested on Clostridium bolteae strain: ATCCBAA-613 for biotransformation. The drug concentrations were measured before and after a 12-h incubation by liquid-chromatography-coupled mass spectrometry (LC–MS)

[3] = The drug is tested on Bacteroides coprophilus strain: DSM18228 for biotransformation. The drug concentrations were measured before and after a 12-h incubation by liquid-chromatography-coupled mass spectrometry (LC–MS); settings: 2 µM
[4] = parabacteroides johnsonii, 12 h, 2 µM
Description: The drug is tested on Parabacteroides johnsonii strain: DSM18315 for biotransformation. The drug concentrations were measured before and after a 12-h incubation by liquid-chromatography-coupled mass spectrometry (LC–MS)

[5] = The drug is tested on Dorea formicigenerans strain: ATCC27755 for biotransformation. The drug concentrations were measured before and after a 12-h incubation by liquid-chromatography-coupled mass spectrometry (LC–MS); settings: 2 µM
[6] = The drug is tested on Bacteroides cellulosilyticus strain: DSM14838 for biotransformation. The drug concentrations were measured before and after a 12-h incubation by liquid-chromatography-coupled mass spectrometry (LC–MS); settings: 2 µM
[7] = The drug is tested on Blautia hansenii strain: DSM20583 for biotransformation. The drug concentrations were measured before and after a 12-h incubation by liquid-chromatography-coupled mass spectrometry (LC–MS); settings: 2 µM
[8] = The drug is tested on Bacteroides pectinophilus strain: ATCC43243 for biotransformation. The drug concentrations were measured before and after a 12-h incubation by liquid-chromatography-coupled mass spectrometry (LC–MS); settings: 2 µM
[9] = akkermansia muciniphila, 12 h, 2 µM
Description: The drug is tested on Akkermansia muciniphila strain: ATCC BAA-835 for biotransformation. The drug concentrations were measured before and after a 12-h incubation by liquid-chromatography-coupled mass spectrometry (LC–MS)

[10] = The drug is tested on Ruminococcus gnavus strain: ATCC29149 for biotransformation. The drug concentrations were measured before and after a 12-h incubation by liquid-chromatography-coupled mass spectrometry (LC–MS); settings: mediterraneibacter gnavus, 2 µM
[11] = The drug is tested on Edwardsiella tarda strain: ATCC23685 for biotransformation. The drug concentrations were measured before and after a 12-h incubation by liquid-chromatography-coupled mass spectrometry (LC–MS); settings: 2 µM
[12] = The drug is tested on Bacteroides fragilis strain: HMW615 for biotransformation. The drug concentrations were measured before and after a 12-h incubation by liquid-chromatography-coupled mass spectrometry (LC–MS); settings: 2 µM
[13] = bacteroides stercoris, 12 h, 2 µM
Description: The drug is tested on Bacteroides stercoris strain: ATCC43183 for biotransformation. The drug concentrations were measured before and after a 12-h incubation by liquid-chromatography-coupled mass spectrometry (LC–MS)

[14] = The drug is tested on Coprococcus comes strain: ATCC27758 for biotransformation. The drug concentrations were measured before and after a 12-h incubation by liquid-chromatography-coupled mass spectrometry (LC–MS); format: ADME; set-up: dose 2 uM, timepoint 0 vs 12 hours; settings: 2 µM
[15] = The drug is tested on Bacteroides vulgatus strain: ATCC8482 for biotransformation. The drug concentrations were measured before and after a 12-h incubation by liquid-chromatography-coupled mass spectrometry (LC–MS); settings: phocaeicola vulgatus, 2 µM
[16] = bacteroides intestinalis, 12 h, 2 µM
Description: The drug is tested on Bacteroides intestinalis strain: DSM17393 for biotransformation. The drug concentrations were measured before and after a 12-h incubation by liquid-chromatography-coupled mass spectrometry (LC–MS)

[17] = The drug is tested on Bacteroides fragilis strain: HMW610 for biotransformation. The drug concentrations were measured before and after a 12-h incubation by liquid-chromatography-coupled mass spectrometry (LC–MS); settings: 2 µM
[18] = The drug is tested on Bacteroides xylanisolvens strain: DSM18836 for biotransformation. The drug concentrations were measured before and after a 12-h incubation by liquid-chromatography-coupled mass spectrometry (LC–MS); settings: 2 µM
[19] = The drug is tested on Providencia stuartii strain: ATCC25827 for biotransformation. The drug concentrations were measured before and after a 12-h incubation by liquid-chromatography-coupled mass spectrometry (LC–MS); settings: 2 µM
[20] = parabacteroides distasonis, 12 h, 2 µM
Description: The drug is tested on Parabacteroides distasonis strain: ATCC8503 for biotransformation. The drug concentrations were measured before and after a 12-h incubation by liquid-chromatography-coupled mass spectrometry (LC–MS)

Row | SMILES | Bacterial Biotransformation [1] | Bacterial Biotransformation [2] | Bacterial Biotransformation [3] | Bacterial Biotransformation [4] | Bacterial Biotransformation [5] | Bacterial Biotransformation [6] | Bacterial Biotransformation [7] | Bacterial Biotransformation [8] | Bacterial Biotransformation [9] | Bacterial Biotransformation [10] | Bacterial Biotransformation [11] | Bacterial Biotransformation [12] | Bacterial Biotransformation [13] | Bacterial Biotransformation [14] | Bacterial Biotransformation [15] | Bacterial Biotransformation [16] | Bacterial Biotransformation [17] | Bacterial Biotransformation [18] | Bacterial Biotransformation [19] | Bacterial Biotransformation [20]
1 | CC(=O)OCC(=O)[C@@]1(O)[C@@H](C)C[C@H]2[C@@H]3CCC4=CC(=O)C=C[C@]4(C)[C@@]3(F)[C@@H](O)C[C@@]21C [BETAMETHASONE ACETATE] | Compound NOT metabolized | Compound NOT metabolized | Compound metabolized | Compound metabolized | Compound NOT metabolized | Compound NOT metabolized | Compound metabolized | Compound NOT metabolized | Compound NOT metabolized | Compound NOT metabolized | Compound NOT metabolized | Compound metabolized | Compound metabolized | Compound NOT metabolized | – | – | – | – | – | –
2 | OCCOCCN1CCN(C2=Nc3ccccc3Sc3ccccc32)CC1 [QUETIAPINE] | Compound NOT metabolized | Compound NOT metabolized | Compound NOT metabolized | – | Compound NOT metabolized | Compound NOT metabolized | Compound NOT metabolized | Compound NOT metabolized | Compound NOT metabolized | Compound NOT metabolized | Compound NOT metabolized | Compound NOT metabolized | Compound NOT metabolized | Compound NOT metabolized | Compound NOT metabolized | Compound NOT metabolized | Compound NOT metabolized | – | – | –
3 | CN(C)CCc1c[nH]c2ccc(Cn3cncn3)cc12.O=C(O)c1ccccc1 [RIZATRIPTAN BENZOATE] | Compound NOT metabolized | Compound NOT metabolized | Compound metabolized | – | Compound NOT metabolized | Compound NOT metabolized | Compound NOT metabolized | Compound NOT metabolized | Compound NOT metabolized | – | Compound NOT metabolized | Compound NOT metabolized | – | Compound NOT metabolized | Compound NOT metabolized | – | Compound NOT metabolized | Compound NOT metabolized | Compound NOT metabolized | –
4 | CCCc1nn(C)c2c(=O)[nH]c(-c3cc(S(=O)(=O)N4CCN(C)CC4)ccc3OCC)nc12.O=C(O)CC(O)(CC(=O)O)C(=O)O [SILDENAFIL CITRATE] | Compound NOT metabolized | – | Compound metabolized | Compound NOT metabolized | Compound NOT metabolized | Compound NOT metabolized | Compound metabolized | Compound NOT metabolized | Compound NOT metabolized | Compound NOT metabolized | Compound NOT metabolized | Compound NOT metabolized | Compound NOT metabolized | – | Compound NOT metabolized | Compound NOT metabolized | – | Compound metabolized | Compound NOT metabolized | Compound NOT metabolized
5 | C=CC[C@@H]1/C=C(\C)C[C@H](C)C[C@H](OC)[C@H]2O[C@@](O)(C(=O)C(=O)N3CCCC[C@H]3C(=O)O[C@H](/C(C)=C/[C@@H]3CC[C@@H](O)[C@H](OC)C3)[C@H](C)[C@@H](O)CC1=O)[C@H](C)C[C@@H]2OC.O [TACROLIMUS] | Compound metabolized | Compound metabolized | Compound metabolized | Compound metabolized | Compound NOT metabolized | Compound metabolized | Compound metabolized | Compound NOT metabolized | Compound metabolized | Compound metabolized | Compound NOT metabolized | Compound NOT metabolized | Compound metabolized | Compound metabolized | Compound NOT metabolized | Compound metabolized | – | Compound metabolized | Compound NOT metabolized | Compound metabolized
6 | Cc1ccc(-c2nc3ccc(C)cn3c2CC(=O)N(C)C)cc1 [ZOLPIDEM] | Compound NOT metabolized | Compound NOT metabolized | – | – | Compound NOT metabolized | Compound NOT metabolized | Compound NOT metabolized | Compound NOT metabolized | Compound NOT metabolized | Compound NOT metabolized | Compound NOT metabolized | Compound NOT metabolized | Compound NOT metabolized | Compound NOT metabolized | Compound NOT metabolized | Compound NOT metabolized | Compound NOT metabolized | – | Compound NOT metabolized | –
